Reference: patent US8975406B2, “Compound useful for the treatment of degenerative and inflammatory diseases” (Galapagos N.V., priority 2011, dated 2015)

Legend:
[1] = target: T1, Recombinant human JAK3 catalytic domain (Homo sapiens, UniProt P52333); test: JAK3 inhibition assay; format: biochemical; conditions: polyGT substrate, 33P-gamma-ATP filter assay, 1 μM ATP
T1 construct: catalytic domain (amino acids 795-1124; catalog number 08-046); purchased Carna Biosciences 08-046
Description: Recombinant human JAK3 catalytic domain (amino acids 795-1124; catalog number 08-046) was purchased from Carna Biosciences. 0.5 ng JAK3 protein was incubated with 2.5 μg polyGT substrate (Sigma catalog number P0275) in kinase reaction buffer (25 mM Tris pH 7.5, 0.5 mM EGTA, 10 mM MgCl2, 2.5 mM DTT, 0.5 mM Na3VO4, 5 mM b-glycerolphosphate, 0.01% Triton X-100, 1 μM non-radioactive ATP, 0.25 μCi ^33P-gamma-ATP (Perkin Elmer, catalog number NEG602K001MC) final concentrations) with or without 5 μL containing test compound or vehicle (DMSO, 1% final concentration), in a total volume of 25 μL, in a polypropylene 96-well plate (Greiner, V-bottom). After 45 min at 30° C., reactions were stopped by adding 25 μL/well of 150 mM phosphoric acid. All of the terminated kinase reaction was transferred to prewashed (75 mM phosphoric acid) 96 well filter plates (Perkin Elmer catalog number 6005177) using a cell harvester (Perkin Elmer). Plates were washed 6 times with 300 μL per well of a 75 mM phosphoric acid solution and the bottom of the plates was sealed. 40 μL/well of Microscint-20 was added, the top of the plates was sealed and readout was performed using the Topcount (Perkin Elmer). Kinase activity was calculated by subtracting counts per min (cpm) obtained in the presence of a positive control inhibitor (10 μM staurosporine) from cpm obtained in the presence of vehicle. The ability of a test compound to inhibit this activity was determined as: Percentage inhibition=((cpm determined for sample with test compound present−cpm determined for sample with positive control inhibitor)divided by(cpm determined in the presence of vehicle−cpm determined for sample with positive control inhibitor))*100.
(§1) Dose dilution series were prepared for the compounds enabling the testing of dose-response effects in the JAK3 assay and the calculation of the IC50 for each compound. Each compound was routinely tested at concentration of 20 μM followed by a ⅕ serial dilution, 10 points in a final concentration of 1% DMSO. When potency of compound series increased, more dilutions were prepared and/or the top concentration was lowered (e.g. 5 μM, 1 μM).

[2] = target: T2, Recombinant human TYK2 catalytic domain (Homo sapiens, UniProt P29597); test: TYK2 inhibition assay; format: biochemical; conditions: polyGT substrate, 33P-gamma-ATP filter assay, 0.1 μM ATP
T2 construct: catalytic domain (amino acids 871-1187; catalog number 08-147); GST; purchased Carna Biosciences 08-147
T2 sequence (P29597 871-1187): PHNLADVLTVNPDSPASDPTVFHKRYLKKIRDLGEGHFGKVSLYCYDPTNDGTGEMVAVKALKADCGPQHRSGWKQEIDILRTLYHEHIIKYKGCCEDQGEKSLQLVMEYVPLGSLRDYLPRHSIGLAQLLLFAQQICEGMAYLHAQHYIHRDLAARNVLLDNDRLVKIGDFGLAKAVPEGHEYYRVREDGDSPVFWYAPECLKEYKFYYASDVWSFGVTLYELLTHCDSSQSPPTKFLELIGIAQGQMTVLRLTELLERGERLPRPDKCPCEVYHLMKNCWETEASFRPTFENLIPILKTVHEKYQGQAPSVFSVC
Description: Recombinant human TYK2 catalytic domain (amino acids 871-1187; catalog number 08-147) was purchased from Carna biosciences. 4 ng of TYK2 was incubated with 12.5 μg polyGT substrate (Sigma catalog number P0275) in kinase reaction buffer (25 mM Hepes pH 7.2, 50 mM NaCl, 0.5 mM EDTA, 1 mM DTT, 5 mM MnCl2, 10 mM MgCl2, 0.1% Brij-35, 0.1 μM non-radioactive ATP, 0.125 μCi ^33P-gamma-ATP (Perkin Elmer, catalog number NEG602K001MC) final concentrations) with or without 5 μL containing test compound or vehicle (DMSO, 1% final concentration), in a total volume of 25 μL, in a polypropylene 96-well plate (Greiner, V-bottom). After 90 min at 30° C., reactions were stopped by adding 25 μL/well of 150 mM phosphoric acid. All of the terminated kinase reaction was transferred to prewashed (75 mM phosphoric acid) 96 well filter plates (Perkin Elmer catalog number 6005177) using a cell harvester (Perkin Elmer). Plates were washed 6 times with 300 μL per well of a 75 mM phosphoric acid solution and the bottom of the plates was sealed. 40 μL/well of Microscint-20 was added, the top of the plates was sealed and readout was performed using the Topcount (Perkin Elmer). Kinase activity was calculated by subtracting counts per min (cpm) obtained in the presence of a positive control inhibitor (10 μM staurosporine) from cpm obtained in the presence of vehicle. The ability of a test compound to inhibit this activity was determined as: Percentage inhibition=((cpm determined for sample with test compound present−cpm determined for sample with positive control inhibitor)divided by(cpm determined in the presence of vehicle−cpm determined for sample with positive control inhibitor))*100.
as §1, with “TYK2” for “JAK3”, “⅓” for “⅕”, “8” for “10”, “points (20 μM-6.67 μM-2.22 μM-740 nM-247 nM-82 nM-27 nM-9 nM)” for “points”

T1 sequence (P52333 795-1124): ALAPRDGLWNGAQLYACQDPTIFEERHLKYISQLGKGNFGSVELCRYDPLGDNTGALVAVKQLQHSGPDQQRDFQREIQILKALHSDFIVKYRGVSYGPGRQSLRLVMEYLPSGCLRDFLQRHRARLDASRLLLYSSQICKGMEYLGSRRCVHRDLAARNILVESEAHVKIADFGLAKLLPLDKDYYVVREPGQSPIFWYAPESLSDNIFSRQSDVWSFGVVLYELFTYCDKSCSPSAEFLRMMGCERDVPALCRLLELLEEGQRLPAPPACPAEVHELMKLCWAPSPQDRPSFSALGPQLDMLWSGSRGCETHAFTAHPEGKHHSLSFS

Row | SMILES | IC50 [1] [nM] | IC50 [2] [nM]
1 | COc1ccc(-c2cccn3nc(NC(=O)C4CC4)cc23)cc1 [Compound 1, N-(4-(4-methoxyphenyl)pyrazolo[1,5-a]pyridin-2-yl)cyclopropanecarboxamide] | 0.01 to 100 | 0.01 to 100
2 | O=C(Nc1cc2c(-c3ccc(OCc4ccccc4)cc3)cccn2n1)C1CC1 [Compound 2, N-(4-(4-(benzyloxy)phenyl)pyrazolo[1,5-a]pyridin-2-yl)cyclopropanecarboxamide] | 0.01 to 100 | 101 to 500
3 | O=C(Nc1cc2c(-c3ccc4c(ccn4Cc4ccccc4)c3)cccn2n1)C1CC1 [Compound 3, N-(4-(1-benzyl-1H-indol-5-yl)pyrazolo[1,5-a]pyridin-2-yl)cyclopropanecarboxamide] | 0.01 to 100 | 101 to 500
4 | O=C(Nc1cc2c(-c3ccc4[nH]ccc4c3)cccn2n1)C1CC1 [Compound 4, N-(4-(1H-indol-5-yl)pyrazolo[1,5-a]pyridin-2-yl)cyclopropanecarboxamide] | 0.01 to 100 | 0.01 to 100
5 | O=C(NCCc1ccccc1)c1ccc(-c2cccn3nc(NC(=O)C4CC4)cc23)cc1 [Compound 5, 4-(2-(cyclopropanecarboxamido)pyrazolo[1,5-a]pyridin-4-yl)-N-phenethylbenzamide] | > 1000 | 0.01 to 100
6 | O=C(NCCOc1ccccc1)c1ccc(-c2cccn3nc(NC(=O)C4CC4)cc23)cc1 [Compound 6, 4-(2-(cyclopropanecarboxamido)pyrazolo[1,5-a]pyridin-4-yl)-N-(2-phenoxyethyl)benzamide] | 0.01 to 100 | 101 to 500
7 | COc1ccc(-c2cccn3nc(NC(=O)C4CC4)c(-c4ccccc4)c23)cc1 [Compound 7, N-(4-(4-methoxyphenyl)-3-phenylpyrazolo[1,5-a]pyridin-2-yl)cyclopropanecarboxamide] | > 1000 | > 1000
8 | O=C(Nc1cc2c(-c3ccc(OCc4cccnc4)cc3)cccn2n1)C1CC1 [Compound 8, N-(4-(4-(pyridin-3-ylmethoxy)phenyl)pyrazolo[1,5-a]pyridin-2-yl)cyclopropanecarboxamide] | 101 to 500 | –
9 | N#Cc1ccc(COc2ccc(-c3cccn4nc(NC(=O)C5CC5)cc34)cc2)cn1 [Compound 9, N-(4-(4-((6-cyanopyridin-3-yl)methoxy)phenyl)pyrazolo[1,5-a]pyridin-2-yl)cyclopropanecarboxamide] | 0.01 to 100 | 0.01 to 100
10 | O=C(Nc1cc2c(-c3ccc(CN4CCS(=O)(=O)CC4)cc3)cccn2n1)C1CC1 [Compound 10, Cyclopropanecarboxylic acid {4-[4-(1,1-dioxo-thiomorpholin-4-ylmethyl)-phenyl]-pyrazolo[1,5-a]pyridin-2-yl}-amide] | 0.01 to 100 | 0.01 to 100
11 | O=C(Nc1nn2cccc(-c3ccc(CN4CCS(=O)(=O)CC4)cc3)c2c1F)C1CC1 [Compound 11, Cyclopropanecarboxylic acid {4-[4-(1,1-dioxo-thiomorpholin-4-ylmethyl)-phenyl]-3-fluoro-pyrazolo[1,5-a]pyridin-2-yl}-amide] | 0.01 to 100 | 0.01 to 100
12 | O=C(Nc1nn2cccc(-c3ccc(CN4CCS(=O)(=O)CC4)cc3)c2c1Br)C1CC1 [Compound 12, Cyclopropanecarboxylic acid {4-[4-(1,1-dioxo-thiomorpholin-4-ylmethyl)-phenyl]-3-bromo-pyrazolo[1,5-a]pyridin-2-yl}-amide] | 101 to 500 | 0.01 to 100
13 | O=C(Nc1nn2cccc(-c3ccc(CN4CCS(=O)(=O)CC4)cc3)c2c1Cl)C1CC1 [Compound 13, Cyclopropanecarboxylic acid {4-[4-(1,1-dioxo-thiomorpholin-4-ylmethyl)-phenyl]-3-chloro-pyrazolo[1,5-a]pyridin-2-yl}-amide] | 101 to 500 | 0.01 to 100
14 | O=C(Nc1cc2c(-c3ccc(C(=O)N4CCCCC4)cc3)cccn2n1)C1CC1 [Compound 14, Cyclopropanecarboxylic acid {4-[4-(piperidine-1-carbonyl)-phenyl]-pyrazolo[1,5-a]pyridin-2-yl}-amide] | 101 to 500 | 0.01 to 100
15 | CS(=O)(=O)N1CCN(Cc2ccc(-c3cccn4nc(NC(=O)C5CC5)cc34)cc2)CC1 [Compound 15, N-(4-(4-((4-(methylsulfonyl)piperazin-1-yl)methyl)phenyl)pyrazolo[1,5-a]pyridin-2-yl)cyclopropanecarboxamide] | 0.01 to 100 | 0.01 to 100

The next lines start with the values.

Row | IC50 [1] [nM] | IC50 [2] [nM] | SMILES
16 | 101 to 500 | 0.01 to 100 | CS(=O)(=O)C1CCN(Cc2ccc(-c3cccn4nc(NC(=O)C5CC5)cc34)cc2)CC1 [Compound 17, N-(4-(4-((4-(methylsulfonyl)piperidin-1-yl)methyl)phenyl)pyrazolo[1,5-a]pyridin-2-yl)cyclopropanecarboxamide]
17 | 101 to 500 | 0.01 to 100 | CS(=O)(=O)C1CCN(Cc2ccc(-c3cccn4nc(NC(=O)C5CC5)cc34)cc2F)CC1 [Compound 18, N-(4-(3-fluoro-4-((4-(methylsulfonyl)piperidin-1-yl)methyl)phenyl)pyrazolo[1,5-a]pyridin-2-yl)cyclopropanecarboxamide]
18 | > 1000 | 101 to 500 | CS(=O)(=O)C1CCN(Cc2ccc(-c3cccn4nc(NC(=O)C5CC5)c(Cl)c34)cc2)CC1 [Compound 19, N-(3-chloro-4-(4-((4-(methylsulfonyl)piperidin-1-yl)methyl)phenyl)pyrazolo[1,5-a]pyridin-2-yl)cyclopropanecarboxamide]
19 | 501 to 1000 | 0.01 to 100 | CS(=O)(=O)C1CCN(Cc2ccc(-c3cccn4nc(NC(=O)C5CC5)c(Cl)c34)cc2F)CC1 [Compound 20, N-(3-chloro-4-(3-fluoro-4-((4-(methylsulfonyl)piperidin-1-yl)methyl)phenyl)pyrazolo[1,5-a]pyridin-2-yl)cyclopropanecarboxamide]
20 | 101 to 500 | 101 to 500 | CC(=O)Nc1cc2c(-c3ccc(CN4CCN(S(C)(=O)=O)CC4)c(F)c3)cccn2n1 [Compound 21]
21 | 101 to 500 | 101 to 500 | CS(=O)(=O)N1CCN(Cc2ccc(-c3cccn4nc(NC(=O)C5CC5)cc34)cn2)CC1 [Compound 23, N-(4-(6-((4-(methylsulfonyl)piperazin-1-yl)methyl)pyridin-3-yl)pyrazolo[1,5-a]pyridin-2-yl)cyclopropanecarboxamide]
22 | 501 to 1000 | 501 to 1000 | CC(=O)Nc1cc2c(-c3ccc(CN4CCN(S(C)(=O)=O)C[C@H]4C)cc3)cccn2n1 [Compound 24, (R)-N-(4-(4-((2-methyl-4-(methylsulfonyl)piperazin-1-yl)methyl)phenyl)pyrazolo[1,5-a]pyridin-2-yl)acetamide]
